The values that follow come from patent publication US12371432B2, “Haloallylamine compounds and application thereof” (TransThera Sciences (Nanjing), Inc., priority 2019, dated 2025).

Where a name gives a salt, the structure may show the parent alone. Read-outs that look alike come from different tables or passages of the source.

A short description of data set [1]: Rat blood-brain barrier evaluation. It is filed as in vivo. The following applies: rat, oral, SD rats, intragastric 10 mg/kg. As for the experimental part:
(1) Animal Administration and Sampling Method:
The study compound A1, the compound A41 and PXS-4728 were dissolved in normal saline to prepare solutions. The prepared solutions were separately administered by intragastric administration to SD rats at a dose of 10 mg/kg. […] At each time point, samples were collected from three SD rats.
On the day of the study, the animals were fixed to collect 0.15 mL of blood from the jugular vein at each set time point, and the whole blood samples were put into anticoagulation tubes containing EDTA-K2. After blood sampling was completed, heart perfusion was immediately performed for the animals, and following the heart perfusion, brain tissue samples were collected.
After the whole blood samples were centrifuged under the condition of 1,524 g for 10 min, top plasma samples were collected into sample tubes. The tissue samples were weighed, added with 20% of aqueous methanol solution at a weight-to-volume ratio of 1:5 (tissue:homogenate) and homogenized. The biological samples were stored at −40° C. to −20° C. for analysis.
(4) Sample Analysis Method:
(§1) Plasma sample: The samples to be tested were taken out of the refrigerator, naturally thawed at room temperature and then swirled for 5 min, and 20 μL of plasma sample was accurately pipetted into 1.5 mL centrifuge tubes. 100 μL of internal standard working solution (solution of 5 ng/mL verapamil and 50 ng/mL glibenclamide in acetonitrile) was added, and uniform mixing was performed. After 1 min of swirling, centrifugation was performed at 13,000 rpm for 8 min. 40 μL of supernate was accurately pipetted into a 96-well plate added with 160 μL water/well in advance. Uniform mixing was performed by swirling for 10 min, followed by LC-MS/MS assay.
as §1, with “Brain tissue” for “Plasma”, “50” for “20”, “250” for “100”, “30” for “40”, “150” for “160”
(5) Data Processing Method:
Analyst 1.6.2 from AB Sciex was used to output concentration results of tested compounds. Microsoft Excel was used to calculate parameters such as mean value, standard deviation and variation coefficient (excluding those outputted directly by Analyst 1.6.2).

A further data set has as its target T1, rhAOC1 (Homo sapiens, UniProt P19801).
T1 construct: purchased R&D
T1 sequence (P19801 20-751): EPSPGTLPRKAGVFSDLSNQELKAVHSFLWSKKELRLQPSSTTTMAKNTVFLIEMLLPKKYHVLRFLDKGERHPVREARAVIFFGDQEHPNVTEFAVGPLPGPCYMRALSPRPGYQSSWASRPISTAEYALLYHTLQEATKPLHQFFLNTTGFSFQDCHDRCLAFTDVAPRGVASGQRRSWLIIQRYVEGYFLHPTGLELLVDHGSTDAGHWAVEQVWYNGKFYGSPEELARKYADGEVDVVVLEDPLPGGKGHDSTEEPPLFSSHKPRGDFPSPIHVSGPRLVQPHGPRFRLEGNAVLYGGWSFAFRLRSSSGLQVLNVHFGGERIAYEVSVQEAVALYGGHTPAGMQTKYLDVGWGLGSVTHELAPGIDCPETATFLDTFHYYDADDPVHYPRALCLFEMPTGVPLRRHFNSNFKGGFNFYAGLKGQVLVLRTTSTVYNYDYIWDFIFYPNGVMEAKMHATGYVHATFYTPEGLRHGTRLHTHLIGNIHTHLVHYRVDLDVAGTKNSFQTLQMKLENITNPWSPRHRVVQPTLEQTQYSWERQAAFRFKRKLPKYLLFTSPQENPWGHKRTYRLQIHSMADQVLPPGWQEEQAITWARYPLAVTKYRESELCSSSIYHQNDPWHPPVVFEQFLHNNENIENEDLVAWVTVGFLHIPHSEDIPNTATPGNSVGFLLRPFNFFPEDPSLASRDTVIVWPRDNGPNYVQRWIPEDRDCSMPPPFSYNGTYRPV
Briefly: Selectivity against rhAOC1 enzyme (Biological Example 2). The following applies: Table 2; histamine substrate, Amplex Red/HRP. It is filed as biochemical. As for the experimental part:
2. Selectivity of Compounds Against rhAOC1 Enzyme
(§2) (1) Instrument, Consumable and Reagent
Microplate reader (Perkin Elmer, Nivo 5S), black unclear-bottom 96-well plate (Corning) and rhAOC1 (R&D)
(§3) (2) Preparation of Concentration Gradient Compound Solutions
An appropriate amount of the compound to be tested was taken, dissolved in DMSO to 10 mM and then stored. Before the study, an appropriate amount of mother liquor of the 10 mM compound to be tested was taken and gradiently diluted 3-fold with DMSO, 10 concentration gradients in total. Each concentration gradient was then diluted 10-fold with 0.1 M of PBS.
(§4) (3) Preparation of Enzyme Solutions
An appropriate amount of rhAOC1 mother liquor with a concentration of 0.441 mg/mL was taken and diluted with an appropriate amount of 50 mM HEPES buffer solution to obtain enzyme solutions of 4× concentrations.
(§5) (4) Preparation of Substrate Mixtures of 2× Concentrations
An appropriate amount of histamine was weighed and dissolved with 50 mM of HEPES buffer solution to obtain 20 mM of histamine solution. The histamine solution was added with 2 mM of Amplex Red mother liquor and 500 U/mL of HRP mother liquor and diluted with 50 mM of HEPES buffer solution to obtain substrate mixtures of 2× concentrations.
(§6) 10 μL compound solutions of different concentrations, 25 μL rhAOC1 enzyme solutions of 4× concentrations and 15 μL of 50 mM HEPES buffer solution were first added into a 96-well plate, shaken to be mixed uniformly and then incubated at 37° C. for 30 min. 50 μL substrate mixtures of 2× concentrations were then added into each well, and the microplate reader was immediately used to detect fluorescence intensity of each well with 580 nm (20 nm) exciting light and 620 nm (10 nm) emission light for 5 min each time, 30 min in total. The inhibition rate was calculated according to the following formula: V (RFU/min)=(Ft (RFU)−F0 (RFU))/(time(min)) Inhibition rate (%)=100%−Vcmpd (RFU/min)/Vmax (RFU/min)×100%
(§7) V: fluorescence change rate; Ft: fluorescence reading at time point t; F0: initial fluorescence reading; Time: duration t; Vcmpd: fluorescence change rate of tested compound; Vmax: Max hole fluorescence change rate.
(§8) (6) Fitting of Dose-Response Curve
(§9) With the log value of concentration as the X axis and the percent inhibition rate as the Y axis, the log (inhibitor) vs. response-variable slope of analysis software GraphPad Prism 5 was used to fit a dose-response curve, thus obtaining the IC50 value of activity of each compound against the enzyme.

The next data set deals with T2, rhVAP-1 (Homo sapiens, UniProt Q16853).
T2 construct: purchased PeproTech
T2 sequence (Q16853 27-763 limits assumed): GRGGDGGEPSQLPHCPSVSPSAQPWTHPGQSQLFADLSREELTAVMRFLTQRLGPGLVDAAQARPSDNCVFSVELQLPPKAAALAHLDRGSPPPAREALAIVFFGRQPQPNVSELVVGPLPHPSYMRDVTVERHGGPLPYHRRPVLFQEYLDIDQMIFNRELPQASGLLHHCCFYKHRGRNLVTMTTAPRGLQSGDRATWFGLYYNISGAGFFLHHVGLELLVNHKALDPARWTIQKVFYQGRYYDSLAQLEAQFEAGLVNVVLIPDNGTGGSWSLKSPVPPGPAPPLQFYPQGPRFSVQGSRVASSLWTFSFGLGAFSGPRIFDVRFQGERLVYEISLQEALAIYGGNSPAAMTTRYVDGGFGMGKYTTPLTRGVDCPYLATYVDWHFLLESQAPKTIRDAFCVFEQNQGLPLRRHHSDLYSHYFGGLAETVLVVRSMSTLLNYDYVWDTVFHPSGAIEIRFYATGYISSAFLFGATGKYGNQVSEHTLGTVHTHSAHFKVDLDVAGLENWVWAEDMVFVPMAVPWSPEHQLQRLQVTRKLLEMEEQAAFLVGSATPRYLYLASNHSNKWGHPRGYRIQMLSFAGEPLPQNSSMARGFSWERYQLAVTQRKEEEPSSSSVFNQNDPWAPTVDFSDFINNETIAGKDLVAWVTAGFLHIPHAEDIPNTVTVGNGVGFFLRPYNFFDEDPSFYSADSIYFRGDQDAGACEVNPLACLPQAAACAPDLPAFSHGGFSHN
As to the kind of experiment: Inhibitory activity against rhVAP-1 enzyme (Biological Example 2). It is filed as biochemical. The following applies: Table 2; benzylamine substrate, Amplex Red/HRP. As for the experimental part:
1. Inhibitory Activity of Compounds Against rhVAP-1 Enzyme
as §2
Microplate reader (Perkin Elmer, Nivo 5S), black unclear-bottom 96-well plate (Corning) and rhVAP-1 (PeproTech)
as §3
An appropriate amount of the compound to be tested was taken, dissolved in DMSO to 10 mM and then stored. Before the study, an appropriate amount of mother liquor of the 10 mM compound to be tested was taken and gradiently diluted 3-fold with DMSO, 10 concentration gradients in total. Each concentration gradient was then diluted 100-fold with 0.1 M of PBS.
as §4
An appropriate amount of protein diluent was added into rhVAP-1 powder, obtaining 1 mg/mL of mother liquor for storage. Before the study, PBS was used to carry out dilution to obtain enzyme solutions of 4× concentrations.
as §5
An appropriate amount of benzylamine was weighed and dissolved with PBS to obtain 200 mM of benzylamine solution. The benzylamine solution was added with 2 mM of Amplex Red mother liquor and 500 U/mL of HRP mother liquor and diluted with PBS to obtain substrate mixtures of 2× concentrations.
as §6, with “rhVAP-1” for “rhAOC1”, “PBS” for “50 mM HEPES buffer solution”, “perform detection” for “detect fluorescence intensity of each well”
as §7, §8, §9

In the case of `CC(C)(C)NC(=O)c1ccc(OC/C(=C/F)CN)cc1` [PXS-4728, reference compound], the concentration at 0.167 h in data set [1] (brain, 0.167 h, read-out: Average Brain tissue concentration (N=3)) amounted to 337 ng/g; in data set [1] (plasma, 0.167 h, read-out: Average Plasma concentration (N=3)), 373 ng/mL. The concentration at 1 h in data set [1] (brain, 1 h, read-out: Average Brain tissue concentration (N=3)) is 1400 ng/g; in data set [1] (plasma, 1 h, read-out: Average Plasma concentration (N=3)) it was 1040 ng/mL. Moreover, the concentration at 6 h in data set [1] (brain, 6 h, read-out: Average Brain tissue concentration (N=3)) was found to be 311 ng/g; in data set [1] (plasma, 6 h, read-out: Average Plasma concentration (N=3)), 175 ng/mL. In addition, the Kp at 0.167 h in data set [1] (brain/plasma, 0.167 h, read-out: Mean brain tissue/plasma concentration ratio) amounted to 0.89. In addition, in data set [1] (brain/plasma, 1 h, read-out: Mean brain tissue/plasma concentration ratio), the Kp at 1 h amounted to 1.34. The Kp at 6 h in data set [1] (brain/plasma, 6 h, read-out: Mean brain tissue/plasma concentration ratio) was determined as 1.89.

Regarding `NC/C(=C\F)Cn1cc2c(n1)CCN(C1CCCC1)C2=O` [Compound A10 hydrochloride, (E)-2-(2-(aminomethyl)-3-fluoroallyl)-5-cyclopentyl-2,5,6,7-tetrahydro-4H-pyrazolo[4,3-c]pyridin-4-one], the concentration for half-maximal inhibition (IC50) against rhAOC1 turned out to be 1240 nM; on rhVAP-1, 40 nM.

Take `CC(C)(C)NC(=O)c1cnn(C/C(=C/F)CN)c1` [Compound B3, (E)-1-(2-(aminomethyl)-3-fluoroallyl)-N-(tert-butyl)-1H-pyrazole-4-carboxamide]: the results for the half-inhibitory concentration (IC50) against rhAOC1 and at rhVAP-1 were 12500 nM and 89 nM, respectively.

For `CCNC(=O)c1cnn(C/C(=C/F)CN)c1` [Compound B2, (E)-1-(2-(aminomethyl)-3-fluoroallyl)-N-ethyl-1H-pyrazole-4-carboxamide], the results for the IC50 against rhAOC1 and against rhVAP-1 were 5380 nM and 55 nM, respectively.

As to `NC/C(=C\F)Cn1ccc2cc(C(=O)N3CCCC3)ccc21` [Compound C7 hydrochloride, (E)-(1-(2-(aminomethyl)-3-fluoroallyl)-1H-indole-5-yl)(pyrrolidin-1-yl)methanone], the concentration for half-maximal inhibition (IC50) at rhAOC1 came out at 13400 nM; on rhVAP-1, 96 nM.

One may read the IC50 as the concentration that inhibits the measured activity by half. The low end stands for greater potency, the high end for weaker potency.
